Consider three molecules from ChEMBL document CHEMBL1131682, “New photoaffinity analogs of paclitaxel” (1999).

Common to all, as to format: functional
For one experiment, the system named is MCF7. The experiment in a line: Inhibition of the growth of human breast tumor cell line (MCF-7) after 72 hr of drug exposure.
The subject of a further experiment is A121. Briefly: Inhibition of growth of human ovarian tumor cell line (A121) after 72 hr of drug exposure.
For the next experiment, the system named is MCF7R. The experiment in a line: Inhibition the growth of doxorubicin resistant human breast tumor cell line (MCF-7-R) after 72 hr of drug exposure.
The next experiment deals with HT-29. Briefly: Inhibition of growth of human colon tumor cell line (HT-29) after 72 hr of drug exposure.
The test system of another experiment is A549. Briefly: Inhibition of growth of human NSCL non small cell lung carcinoma cell line ([…]) after 72 hr of drug exposure.

Usually Inhibition stands for how much of the control response was suppressed. A word on the IC50: it is the concentration that gives 50% inhibition. The low end stands for greater potency in that assay, the high end for weaker potency in that assay. Consider `CC(=O)O[C@@]12CO[C@@H]1C[C@H](O)[C@@]1(C)C(=O)[C@H](OC(=O)CCc3cccc(C(=O)c4ccccc4)c3)C3=C(C)C(OC(=O)[C@H](O)[C@@H](NC(=O)c4ccccc4)c4ccccc4)C[C@@](O)([C@@H](OC(=O)c4ccccc4)C12)C3(C)C` (stereo not given in full), for which the Inhibition was determined as 20.7% with MCF7, 32.8% in the experiment on A121, 40.8% with HT-29 and 40.8% with A549. The molecule also had an IC50 in the experiment on MCF7R of 1540 nM.
In the case of `CC(=O)O[C@H]1C(=O)[C@@]2(C)C([C@H](OC(=O)c3ccccc3)[C@]3(O)CC(OC(=O)[C@H](O)[C@@H](NC(=O)c4ccccc4)c4ccccc4)C(C)=C1C3(C)C)[C@]1(OC(C)=O)CO[C@@H]1C[C@@H]2OC(=O)CCc1cccc(C(=O)c2ccccc2)c1` (stereo not given in full), the Inhibition in the experiment with MCF7 was 2.4%; with A121, 8.8%; with HT-29, 6.5%; with A549 it was 13%. 450 nM corresponded to half-maximal inhibition with MCF7R (IC50).
As to `CC(=O)O[C@H]1C(=O)[C@@]2(C)[C@H]([C@H](OC(=O)c3ccccc3)[C@]3(O)C[C@H](OC(=O)[C@H](O)[C@@H](NC(=O)c4ccccc4)c4ccccc4)C(C)=C1C3(C)C)[C@]1(OC(C)=O)CO[C@@H]1C[C@@H]2O` [PACLITAXEL], the Inhibition in the experiment on MCF7 is 1.7%; with A121 it was 6.1%; in the experiment on HT-29 it was 3.2%; in the experiment on A549, 3.6%. In the experiment on MCF7R, this molecule displayed an IC50 of 300 nM.
